Values of other authors in patent US11433096B2, “Ophthalmic formulation and methods of use” (priority 2020, dated 2022).

What was measured:
[1] = test system: opacities; conditions: in vivo
[2] = test system: diabetes-induced cataract; conditions: diabetic rats

O=S(=O)([O-])[O-].[Zn+2] [Zinc Sulfate]
opacities progression and opacity score [1]: retard opacities progression and lowering the opacity score

[Zn] [zinc]
cross-linked glycation, expression of the receptor of glycated products and oxidative stress indicators in the eye lens ([2]; supplemental zinc): alleviated
progression and maturation of diabetes-induced cataract ([2]; supplemental zinc): alleviated
reduced content of total and imbalanced proportion of soluble proteins in the lens ([2]; supplemental zinc): effective in preventing
concentration of heat shock protein in the eye lens, specifically α-crystallin ([2]; zinc supplementation): induced
elevated activity and expression of polyol pathway enzymes and molecules in the lens ([2]; zinc supplementation): counteracted
